Assay results published in paper PMC4481774, “Discovery of a non-cationic cell penetrating peptide derived from membrane-interacting human proteins and its potential as a protein delivery carrier” (Scientific Reports, 2015).
Read-outs that look alike come from different tables or passages of the source. Where no end group is shown, it is not given here. The star is where a group is joined. FITC = O=C1OC2(c3ccc(O)cc3Oc3cc(O)ccc32)c2ccc(NC(=S)*)cc21

Columns and labels:
HeLa cells [1] = assay: Intracellular uptake of CPPs in the presence or absence of serum, flow cytometry; assay type: cell-based, Human; details: peptide 1 μM, with or without 10% mouse serum, 4 h
Description: Samples were prepared as described for cellular uptake above.

cells [2] = details: uptake kinetics of TAT; cited from earlier work
Raw 264.7 cells = assay: Immunogenicity assay (IL-6 release, ELISA); assay type: cell-based, Murine; details: 24 h; AA3H 10 μM or LPS 10 μg/mL; mouse IL-6 ELISA; average of three; non-treated control 20 pg/mL
Description: Raw 264.7 cells were seeded into 24-well plates and cultured for 24 h. Cells were grown to 80% confluence and treated with lipopolysaccharides (LPS, 10 μg/mL) as a positive control. After incubation of AA3H peptide (10 μM) with cells for 24 h, supernatants were transferred to 1.5 mL tubes and centrifuged at 10,000 × g for 10 min at 4 °C. For the detection of interleukin-6 (IL-6) a mouse IL-6 ELISA kit (Thermo Scientific, Waltham, MA, USA) was used. Results from triplicate experiments were analyzed by Prism software (GraphPad, La Jolla, CA, USA). Data are presented as mean ± standard deviation (SD).

HeLa cells [3] = assay: Cellular uptake of FITC-labeled CPPs by flow cytometry; assay type: cell-based, Human; details: for order of potency in intracellular translocation (dose-dependent uptake): 0, 0.5, 1, 2.5, 5 and 10 μM; for order of potency in intracellular translocation (dose-dependent uptake) / cellular uptake efficiency: average of three independent experiments; for cellular uptake efficiency: 1 μM peptide, flow cytometry MFI, serum-containing DMEM, 37 °C
Description: For assessing the uptake of CPP candidates by HeLa cells, cells were seeded onto 6-well plates (1.0 × 10^6 cells/well). […] Cells were washed two times with phosphate-buffered saline (PBS), incubated in trypsin-EDTA solution (0.01% trypsin) at 37 °C for 10 min to digest extracellular proteins, washed two times with ice-cold PBS, and finally resuspended in 500 μL of ice-cold PBS for flow cytometry assays. For endocytosis inhibitor treatments, cells were pre-incubated with various inhibitors (50 μg heparin, 50 μM CPZ, 100 μM CQ, 1 mM MβCD, 30 μg dynasore, or 50 μM EIPA) in serum-containing medium for 30 min before AA3H (1 μM) was added. The sample for flow cytometry analysis was prepared as described above. For the analysis of peptide internalization, a GUAVA flow cytometry system (Merck Millipore, Darmstadt, Germany) with the FL-1 channel for measuring fluorescence in GuavaSoft 2.6 was used according to the manufacturer’s instructions.

HeLa cells [4] = assay: Cellular uptake mechanism of AA3H (heparin, low temperature, endocytosis inhibitors), flow cytometry; assay type: cell-based, Human
Description: For assessing the uptake of CPP candidates by HeLa cells, cells were seeded onto 6-well plates (1.0 × 10^6 cells/well). After 24 h, cells were washed two times with serum-free DMEM and incubated with CPPs at indicated concentrations (0.1, 1, 10 μM) in serum-containing DMEM at 37 °C. Cells were washed two times with phosphate-buffered saline (PBS), incubated in trypsin-EDTA solution (0.01% trypsin) at 37 °C for 10 min to digest extracellular proteins, washed two times with ice-cold PBS, and finally resuspended in 500 μL of ice-cold PBS for flow cytometry assays. For endocytosis inhibitor treatments, cells were pre-incubated with various inhibitors (50 μg heparin, 50 μM CPZ, 100 μM CQ, 1 mM MβCD, 30 μg dynasore, or 50 μM EIPA) in serum-containing medium for 30 min before AA3H (1 μM) was added. The sample for flow cytometry analysis was prepared as described above. For the analysis of peptide internalization, a GUAVA flow cytometry system (Merck Millipore, Darmstadt, Germany) with the FL-1 channel for measuring fluorescence in GuavaSoft 2.6 was used according to the manufacturer’s instructions.

HeLa cells [5] = assay: Subcellular localization by confocal fluorescence microscopy; assay type: cell-based, Human; details: AA3H 1 μM, 4 h, organelle-specific staining
Description: To visualize the cellular uptake of a peptide using confocal fluorescence microscopy, HeLa cells were seeded onto confocal bottom dish 35-mm plates (SPL, Gyeonggi-do, Korea) and incubated with AA3H (1 μM) for 4 h. Lysosomes and nuclei of AA3H-treated cells were stained with LysoTracker (Life Technologies, Carlsbad, CA, USA; 1 μg/mL for 30 min) and Hoechst (1 μg/mL for 5 min), respectively. For staining ER and Golgi, CellLight Reagents BacMam 2.0 (Life Technologies, Carlsbad, CA, USA) were used. Cells were cultured in confocal dishes for 24 h, transfected with red fluorescence protein (RFP) for 24 h, and treated with AA3H (1 μM) for 4 h. After washing two times with PBS, the intracellular fluorescence of HeLa cells was imaged using confocal laser scanning microscopy (LSM 700, Carl Zeiss, Jena, Germany).

[6] = Liposome experiment (interaction of FITC-labeled AA3H with phospholipid liposomes); assay type: binding; details: liposomes in HBS pH 7.5, 4 h at room temperature, flow cytometric analysis (Supplementary Fig. S3)
Description: Liposome experiment. Phospholipids dissolved in chloroform (L-alpha-phosphatidylcholine: PC, L-alpha-phosphatidylserine: PS, and L-alpha-phosphatidylethanolamine: PE) were purchased 1 from Avanti Polar Lipids. Liposomes were prepared by following a reported procedure . After preparation of phospholipid mixtures with appropriate molar ratios (PC/PS: 8/2 and PC/PE/PS: 4/4/2), the mixtures were dried by removing the solvent. The residues were dissolved in HBS (20 mM HEPES/NaOH, pH 7.5, 100 mM NaCl, 0.02% (w/v) sodium azide) and vortexed to completely resuspend phospholipids. Then, the suspension was sonicated until to have clear solution. The prepared vesicles was incubated with AA3H-CPP (FITC labelled) for 4 h at room temperature and the mixture was centrifuged at 16,000×g for 10 min at 4°C before flow cytometric analysis.
Supplementary Fig. S3. (A) Sizes of liposomes determined by dynamic light scattering. (B) Flow cytometric analysis on the interaction between FITC-labeled AA3H and liposomes. […]

cells [7] = assay: Uptake kinetics (half-time of internalization); assay type: cell-based; details: uptake kinetics of AA3H

Substance: FITC-YGRKKRRQRRR [TAT47-58, widely used conventional CPP, TAT peptide of human immunodeficiency virus, FITC-labeled, reference compound]
- delivery efficiency in the presence of serum (HeLa cells [1]): significantly lowered efficiency
- t0.5 (half-time of internalization) (cells [2]): 1 min

Substance: lipopolysaccharide [LPS]
- IL-6 released into the culture medium (Raw 264.7 cells): 373 pg/mL

Substance: {FITC}-MAQVLRGTVT [AA5H, FITC-labeled N-terminus peptide of an annexin A isoform]
- order of potency in intracellular translocation (dose-dependent uptake) (HeLa cells [3]; HeLa cells, flow cytometry): AA3H > AA5H > AA8H > AA13H > AA4H
- cellular uptake efficiency (HeLa cells [3]; HeLa cells): significant cellular uptake efficiency

Substance: {FITC}-MASIWVGHRG [AA3H]
- order of potency in intracellular translocation (dose-dependent uptake) (HeLa cells [3]; HeLa cells, flow cytometry): AA3H > AA5H > AA8H > AA13H > AA4H
- cellular uptake efficiency (HeLa cells [3]; HeLa cells): significant cellular uptake efficiency
- cellular uptake compared with the fully cationic R9 peptide (HeLa cells [3]; HeLa cells (Supplementary Fig. S1A)): much lower cellular uptake
- uptake efficiency compared with TAT (HeLa cells [3]; HeLa cells, flow cytometry (Fig. 2C)): delivered into the cells better than TAT
- decrease of intracellular delivery after heparin sulfate (HeLa cells [4]; 50 μg/mL heparin sulfate 30 min pre-treatment, then AA3H 4 h, relative to delivery without heparin, average of three): 45%
- cellular uptake at 4 °C lower than at 37 °C (HeLa cells [4]; 4 °C for 2 h vs 37 °C control, flow cytometry): approximately 66%
- decrease of uptake with dynasore (HeLa cells [4]; 30-min pre-treatment, 30 μg dynasore, AA3H 1 μM): 57%
- decrease in uptake with chlorpromazine (CPZ) (HeLa cells [4]; 30-min pre-treatment, 50 μM CPZ, AA3H 1 μM, serum-containing medium): 23.5%
- effect of EIPA (macropinocytosis inhibitor) on peptide delivery (HeLa cells [4]; 30-min pre-treatment, 50 μM EIPA, AA3H 1 μM): significant inhibition of peptide delivery
- increase in mean fluorescence intensity with chloroquine (CQ) (HeLa cells [4]; 30-min pre-treatment, 100 μM CQ, AA3H 1 μM, ascribed to dequenching of fluorescein, not to uptake): 20.5%
- reduction of uptake with methyl-β-cyclodextrin (MβCD) (HeLa cells [4]; 30-min pre-treatment, 1 mM MβCD, AA3H 1 μM): 32%
- reduction of uptake with nystatin (NYS) (HeLa cells [4]; 30-min pre-treatment, AA3H 1 μM): 15%
- subcellular localization (HeLa cells [5]): localized in the cytoplasm but not in the nucleus
- delivery efficiency in the presence of serum (HeLa cells [1]): not considerably affected
- binding to phospholipids known to interact with annexin III [6]: found to also bind AA3H
- t0.5 (half-time of internalization) (cells [7]): ~ 2 h

Substance: {FITC}-MATKGGTVKA [AA4H, FITC-labeled N-terminus peptide of an annexin A isoform]
- order of potency in intracellular translocation (dose-dependent uptake) (HeLa cells [3]; HeLa cells, flow cytometry): AA3H > AA5H > AA8H > AA13H > AA4H
- cellular uptake efficiency (HeLa cells [3]; HeLa cells): significant cellular uptake efficiency

Substance: {FITC}-MAWWKSWIEQ [AA8H, FITC-labeled N-terminus peptide of an annexin A isoform]
- order of potency in intracellular translocation (dose-dependent uptake) (HeLa cells [3]; HeLa cells, flow cytometry): AA3H > AA5H > AA8H > AA13H > AA4H
- cellular uptake efficiency (HeLa cells [3]; HeLa cells): significant cellular uptake efficiency

Substance: {FITC}-MGNRHAKASS [AA13H, FITC-labeled N-terminus peptide of an annexin A isoform]
- order of potency in intracellular translocation (dose-dependent uptake) (HeLa cells [3]; HeLa cells, flow cytometry): AA3H > AA5H > AA8H > AA13H > AA4H
- cellular uptake efficiency (HeLa cells [3]; HeLa cells): significant cellular uptake efficiency

Substance: {FITC}-RRRQQQQQQRRR [PLP, protein linking peptide containing multiple arginine residues, FITC-labeled]
- cellular uptake of PLP-conjugated CPPs (HeLa cells [3]; flow cytometry, fluorescence label of the peptide (Fig. 8B)): not as high as with AA3H conjugation
